Results reported in ChEMBL document CHEMBL1136858, “Synthesis of hydroxycoumarins and hydroxybenzo[f]- or [h]coumarins as lipid peroxidation inhibitors” (Bioorg Med Chem Lett, 2009).
pIC50: −log10 of the molar value. Activity calls are given as the source filed them. The calls are words filed in the database; no cut-off is given here.

Legend:
[1] = Antioxidant activity assessed as inhibition of AAPH-induced lipid peroxidation at 100 uM; type: functional
[2] = system: Radical scavenging activity; assay: Antioxidant activity assessed as DPPH radical scavenging activity at 0.01 mM after 60 mins; type: functional
[3] = system: Radical scavenging activity; assay: Antioxidant activity assessed as DPPH radical scavenging activity at 0.05 mM after 20 mins; type: functional
[4] = system: Radical scavenging activity; assay: Antioxidant activity assessed as DPPH radical scavenging activity at 0.05 mM after 60 mins; type: functional
[5] = system: Radical scavenging activity; assay: Antioxidant activity assessed as DPPH radical scavenging activity at 0.01 mM after 20 mins; type: functional
Rattus norvegicus = assay: Antiinflammatory activity in rat assessed as inhibition of carrageenan-induced paw edema at 0.01 mmol/kg, ip after 3.5 hrs; type: functional
[6] = Antioxidant activity assessed as superoxide radical scavenging activity at 100 uM by nitroblue tetrazolium method; type: functional
Glycine max = assay: Inhibition of soybean lipoxygenase at 100 uM by UV absorbance based assay
[7] = Inhibition of soybean lipoxygenase by UV absorbance based assay; parameters: species or system Glycine max

SMILES: O=c1ccc2cccc(O)c2o1 [8-Hydroxycoumarin]
- inhibition [1]: 28%
- Activity [2]: 32%
- Activity [3]: 31%
- Activity [4]: 30%
- Activity [5]: 33%
- inhibition in vivo at 10 µmol/kg (Rattus norvegicus): 18%
- inhibition [6]: 56%
- inhibition (Glycine max): 37%

SMILES: O=c1ccc2ccc(O)cc2o1 [UMBELLIFERONE]
- pIC50 [7]: 4.37
- inhibition [1]: 83%
- Activity [2]: 2%
- Activity [3]: inactive
- Activity [4]: inactive
- Activity [5]: 2%
- Activity (Rattus norvegicus): inactive
- inhibition [6]: 65%

SMILES: O=c1ccc2c(cc(O)c3ccccc32)o1
- inhibition [1]: 57%
- Activity [2]: 51%
- Activity [3]: 28%
- Activity [4]: 31%
- Activity [5]: 55%
- inhibition in vivo at 10 µmol/kg (Rattus norvegicus): 15%
- inhibition [6]: inactive
- inhibition (Glycine max): 38%

SMILES: COc1ccc2c(c1)c(CC(=O)O)c(C)n2C(=O)c1ccc(Cl)cc1 [INDOMETHACIN]
- inhibition in vivo at 10 µmol/kg (Rattus norvegicus): 47%

SMILES: O=c1ccc2cc(O)c3ccccc3c2o1
- pIC50 [7]: 4.00
- inhibition [1]: 100%
- Activity [2]: 89%
- Activity [3]: 65%
- Activity [4]: 72%
- Activity [5]: 77%
- inhibition in vivo at 10 µmol/kg (Rattus norvegicus): 39%
- inhibition [6]: 61%

SMILES: Cc1c(O)ccc2ccc(=O)oc12
- inhibition [1]: inactive
- Activity [2]: 27%
- Activity [3]: 14%
- Activity [4]: 15%
- Activity [5]: 26%
- inhibition [6]: 60%
- inhibition (Glycine max): 25%

SMILES: O=C(O)/C=C/c1ccc(O)c(O)c1 [CAFFEIC ACID]
- pIC50 [7]: 3.22
- inhibition [6]: 71%

SMILES: Cc1ccc2ccc(=O)oc2c1
- Activity [2]: 2%
- Activity [3]: inactive
- Activity [4]: inactive
- Activity [5]: 2%
- inhibition in vivo at 10 µmol/kg (Rattus norvegicus): 55%
- inhibition (Glycine max): 89%

SMILES: CC(Cc1ccc(O)c(O)c1)C(C)Cc1ccc(O)c(O)c1 (stereo not drawn)
- Activity [2]: 83%
- Activity [3]: 68%
- Activity [4]: 72%
- Activity [5]: 81%

SMILES: O=c1ccc2ccccc2o1 [COUMARIN]
- Activity [2]: 21%
- Activity [3]: inactive
- Activity [4]: inactive
- Activity [5]: 5%
- inhibition in vivo at 10 µmol/kg (Rattus norvegicus): 30%
- inhibition (Glycine max): 15%

SMILES: Cc1c(C)c2c(c(C)c1O)CCC(C)(C(=O)O)O2 (stereo not drawn)
- inhibition [1]: 73%

SMILES: Cc1cc(O)cc2oc(=O)ccc12
- inhibition [1]: 30%
- Activity [2]: 54%
- Activity [3]: 43%
- Activity [4]: 43%
- Activity [5]: 31%
- inhibition [6]: 61%
- inhibition (Glycine max): 27%

SMILES: O=c1ccc2cc(O)c3c(c2o1)CCCC3
- inhibition [1]: 42%
- Activity [2]: 40%
- Activity [3]: 35%
- Activity [4]: 38%
- Activity [5]: 44%
- inhibition [6]: 68%
- inhibition (Glycine max): 12%

SMILES: Cc1cc2oc(=O)ccc2cc1O
- inhibition [1]: 24%
- Activity [2]: 51%
- Activity [3]: 22%
- Activity [4]: 20%
- Activity [5]: 51%
- inhibition [6]: 54%
- inhibition (Glycine max): 3%

SMILES: O=c1ccc2c(o1)c(O)cc1ccccc12
- inhibition [1]: 100%
- Activity [2]: 54%
- Activity [3]: 22%
- Activity [4]: 20%
- Activity [5]: 46%
- inhibition in vivo at 10 µmol/kg (Rattus norvegicus): 18%
- inhibition [6]: 79%
- inhibition (Glycine max): inactive
